According to the supplement of paper PMC10307832:

Assays:
Assay in all cases: relative viability (nuclei count vs DMSO), 5 days (fraction); higher = more cells survive
IMD-0354 + Vorinostat = compound: O=C(Nc1cc(C(F)(F)F)cc(C(F)(F)F)c1)c1cc(Cl)ccc1O [IMD-0354] + O=C(CCCCCCC(=O)Nc1ccccc1)NO [Vorinostat] (partner 1 µM)
Summary of the method: (§1)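 Relative viability equals treated-well nuclei counts divided by vehicle-well nuclei counts. Counts came from 4× images of lung cancer cell lines grown in 1536-well plates for 5 days after pin-tool dosing on the day after seeding. Dosing used one drug alone or a fixed anchor-drug dose plus five library-drug doses (not always all listed) in √10 steps, and values are medians of duplicate plates.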

CX-5461 + Foretinib = compound: Cc1cnc(CNC(=O)c2c(=O)c3ccc(N4CCCN(C)CC4)nc3n3c2sc2ccccc23)cn1 [CX-5461] + COc1cc2c(Oc3ccc(NC(=O)C4(C(=O)Nc5ccc(F)cc5)CC4)cc3F)ccnc2cc1OCCCN1CCOCC1 [Foretinib] (partner 0.25 µM)
Summary of the method: as §1

CX-5461 + Vorinostat = compound: Cc1cnc(CNC(=O)c2c(=O)c3ccc(N4CCCN(C)CC4)nc3n3c2sc2ccccc23)cn1 [CX-5461] + O=C(CCCCCCC(=O)Nc1ccccc1)NO [Vorinostat] (partner 1 µM)
Summary of the method: as §1

CX-5461 + Alpelisib = compound: Cc1cnc(CNC(=O)c2c(=O)c3ccc(N4CCCN(C)CC4)nc3n3c2sc2ccccc23)cn1 [CX-5461] + Cc1nc(NC(=O)N2CCC[C@H]2C(N)=O)sc1-c1ccnc(C(C)(C)C(F)(F)F)c1 [Alpelisib] (partner 2 µM)
Summary of the method: as §1

UMC-11 gave a relative viability (IMD-0354 + Vorinostat; first compound 0.04 µM) of 0.39, a relative viability (IMD-0354 + Vorinostat; first compound 0.1265 µM) of 0.407 and a relative viability (IMD-0354 + Vorinostat; first compound 0.4 µM) of 0.278. For the same cell line, the relative viability (IMD-0354 + Vorinostat; first compound 1.265 µM) was 0.189, the relative viability (IMD-0354 + Vorinostat; first compound 4 µM) was 0.239 and the relative viability (CX-5461 + Foretinib; first compound 0.01 µM) was 1.02. The relative viability (CX-5461 + Foretinib; first compound 0.03162 µM) was 1.08, the relative viability (CX-5461 + Foretinib; first compound 0.1 µM) was 0.906 and the relative viability (CX-5461 + Foretinib; first compound 0.3162 µM) was 1.15. For the same cell line, the relative viability (CX-5461 + Foretinib; first compound 1 µM) was 0.336, the relative viability (CX-5461 + Vorinostat; first compound 0.01 µM) was 0.338 and the relative viability (CX-5461 + Vorinostat; first compound 0.03162 µM) was 0.35. It also gave a relative viability (CX-5461 + Vorinostat; first compound 0.1 µM) of 0.384, a relative viability (CX-5461 + Vorinostat; first compound 0.3162 µM) of 0.398 and a relative viability (CX-5461 + Vorinostat; first compound 1 µM) of 0.202. It also gave a relative viability (CX-5461 + Alpelisib; first compound 0.01 µM) of 0.932, a relative viability (CX-5461 + Alpelisib; first compound 0.03162 µM) of 1.21 and a relative viability (CX-5461 + Alpelisib; first compound 0.1 µM) of 1.07. For the same cell line, the relative viability (CX-5461 + Alpelisib; first compound 0.3162 µM) was 0.956 and the relative viability (CX-5461 + Alpelisib; first compound 1 µM) was 0.391.
